Test results reported in PMC3862409 (International Journal for Parasitology, Drugs and Drug …, 2013).
Substitutions are numbered along the chain they refer to. Entries after “also recorded” stand apart in the source; their conditions may differ.

Key:
[1] = target: T1, T. brucei hexokinase 1 (TbHK1), WT (Trypanosoma brucei brucei, UniProt Q38C42); experiment: Coupled hexokinase assay; type: biochemical
T1 sequence (Q38C42 1-471): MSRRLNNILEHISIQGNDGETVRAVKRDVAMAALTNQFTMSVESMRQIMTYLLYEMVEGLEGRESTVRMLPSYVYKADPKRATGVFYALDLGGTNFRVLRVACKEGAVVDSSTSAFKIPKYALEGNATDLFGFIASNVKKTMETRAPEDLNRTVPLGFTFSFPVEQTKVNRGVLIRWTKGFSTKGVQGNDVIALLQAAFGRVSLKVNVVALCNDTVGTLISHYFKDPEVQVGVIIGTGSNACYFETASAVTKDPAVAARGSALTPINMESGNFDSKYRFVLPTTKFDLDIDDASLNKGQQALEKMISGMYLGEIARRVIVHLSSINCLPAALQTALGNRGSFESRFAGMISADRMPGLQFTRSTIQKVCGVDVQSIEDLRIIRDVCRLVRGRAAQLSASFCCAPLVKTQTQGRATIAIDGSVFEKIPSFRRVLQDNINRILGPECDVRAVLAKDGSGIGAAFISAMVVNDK

TbHK1 [2] = target: T2, TbHK1 (Trypanosoma brucei brucei, UniProt Q38C42); conditions: ref Sharlow et al., 2010b, cited from earlier work; for Inhibition of TbHK1: LOPAC screen, at 10 μM
T2 sequence (Q38C42 1-471): T1 sequence (Q38C42 1-471)

[3] = system: HK from Plasmodium falciparum (PfHK); conditions: ref Harris et al., 2013, cited from earlier work
parasite G6-P levels = conditions: after acute exposure; ref Sharlow et al., 2010a,b; cited from earlier work
T. brucei parasites = conditions: ref Sharlow et al., cited from earlier work; for EC50: read-out: EC50 against parasites, unit inferred, 2010a,b; for Toxicity to parasites: 2010b
TbHK1 C212S = target: T3, TbHK1 C212S (Trypanosoma brucei brucei, UniProt Q38C42, C212S); experiment: Coupled hexokinase assay, TbHK1 Cys variant C212S; type: biochemical
T3 sequence (Q38C42 1-471 C212S): T1 sequence (Q38C42 1-471) with C212S

TbHK1 C369A = target: T4, TbHK1 C369A (Trypanosoma brucei brucei, UniProt Q38C42, C369A); experiment: Coupled hexokinase assay, TbHK1 Cys variant C369A; type: biochemical
T4 sequence (Q38C42 1-471 C369A): T1 sequence (Q38C42 1-471) with C369A

TbHK1 C445A = target: T5, TbHK1 C445A (Trypanosoma brucei brucei, UniProt Q38C42, C445A); experiment: Coupled hexokinase assay, TbHK1 Cys variant C445A; type: biochemical
T5 sequence (Q38C42 1-471 C445A): T1 sequence (Q38C42 1-471) with C445A

[4] = cited from earlier work
TbHK1 C401A = target: T6, TbHK1 C401A (Trypanosoma brucei brucei, UniProt Q38C42, C401A); experiment: Coupled hexokinase assay, TbHK1 Cys variant C401A; type: biochemical
T6 sequence (Q38C42 1-471 C401A): T1 sequence (Q38C42 1-471) with C401A

TbHK1 C402A = target: T7, TbHK1 C402A (Trypanosoma brucei brucei, UniProt Q38C42, C402A); experiment: Coupled hexokinase assay, TbHK1 Cys variant C402A; type: biochemical
T7 sequence (Q38C42 1-471 C402A): T1 sequence (Q38C42 1-471) with C402A

TbHK1 [5] = target: T2, TbHK1; experiment: Native gel analysis of TbHK1 oligomerization; conditions: data not shown
[6] = system: human indoleamine 2,3-dioxygenase (IDO); conditions: covalent modification of multiple Cys residues; ref Terentis et al., 2010; cited from earlier work
[7] = system: glucose-6-phosphate dehydrogenase (G6PDH); experiment: Counterscreen for inhibition of G6PDH; type: biochemical
TbHK1 C242A = target: T8, TbHK1 C242A (Trypanosoma brucei brucei, UniProt Q38C42, C242A); experiment: Coupled hexokinase assay, TbHK1 Cys variant C242A; type: biochemical
T8 sequence (Q38C42 1-471 C242A): T1 sequence (Q38C42 1-471) with C242A

## O[C@@H](CS)[C@@H](O)CS (racemic) [DTT, dithiothreitol]
[1]; DTT alone, 100 mM
  Impact on enzyme activity: little impact on enzyme activity

## O=C(O)c1cc[c]([Hg][Cl])cc1 [4-chloromercuribenzoic acid]
TbHK1 [2]
  Inhibition of TbHK1: 84.7 ± 0.4%

## O=c1c2ccccc2sn1-c1ccccc1 [EbS, 2-phenyl-1,2-benzisothiazol-3(2H)-one]
[3]
  Reversibility of PfHK inhibition by dilution: completely relieved by dilution
Parasite G6-P levels
  Effect on parasite G6-P levels: able to reduce parasite G6-P levels
T. brucei parasites
  EC50: 30 ± 67 nM
  Toxicity to parasites: toxic to parasites

## O=c1c2ccccc2[se]n1-c1ccccc1 [EbSe, 2-phenyl-1,2-benzisoselenazol-3(2H)-one]
TbHK1 C212S
  Sensitivity of variant to inhibition: remained sensitive
TbHK1 C212S; read-out: EbSe IC50, relative to WT
  IC50: < 350 nM
TbHK1 [2]
  Inhibition of TbHK1: 88.1 ± 0.6%
TbHK1 [2]; with respect to ATP
  Mode of inhibition: mixed inhibitors
TbHK1 C369A
  IC50: 260 ± 20 nM
TbHK1 C445A
  IC50: 520 ± 50 nM
[1]
  IC50: 350 ± 70 nM
[1]; 200-fold dilution of enzyme and inhibitor after pre-incubation
  Reversibility of inhibition by dilution: not reversible; also recorded: irreversible
[1]; DTT 100 mM added after incubation with inhibitor
  Rescue of enzyme activity by DTT added after inhibitor incubation: only modestly rescued enzyme activity
[1]; Mg2+ at ~15-fold higher concentrations than standard reaction, data not shown
  Relief of inhibition by excess Mg2+: did not relieve EbSe inhibition
[1]; data not shown
  Effect of pre-incubation of TbHK1 with DTT on inhibition: prevented EbSe inhibition
[1]; enzyme pre-incubated with MPB
  Effect of pre-incubation with MPB on inhibition: did not appreciably alter EbSe inhibition
[3]; more potent on PfHK
  Potency against PfHK relative to TbHK1: ~10 fold
[3]
  Reversibility of PfHK inhibition by dilution: completely relieved by dilution
[4]; human, in vivo
  Toxicity to humans: non-toxic
[4]; ref Yamaguchi et al., 1998
  Outcome of patients suffering stroke: improve the outcome
TbHK1 C401A
  IC50: 290 ± 40 nM
TbHK1 C402A
  IC50: 430 ± 110 nM
Parasite G6-P levels
  Effect on parasite G6-P levels: able to reduce parasite G6-P levels
TbHK1 [5]
  Impact on oligomerization of TbHK1: neither EbSe nor TCEP impact oligomerization
T. brucei parasites
  EC50: 2900 ± 280 nM
  Toxicity to parasites: toxic to parasites
[6]
  Inhibition of human IDO: inhibited
[7]
  Inhibition of G6PDH in counterscreen: ineffective
TbHK1 C242A
  IC50: 550 ± 20 nM

## O=C(CCCCC1SCC2NC(=O)NC21)NCCCCC(NC(=O)CCN1C(=O)C=CC1=O)C(=O)O (stereo not drawn) [MPB, 3-(N-maleimidopropionyl)-biocytin]
[1]; MPB at concentrations up to 50 μM
  Impact on enzyme activity: did not impact enzyme activity

## O=C(O)CCP(CCC(=O)O)CCC(=O)O [TCEP, tris (2-carboxyethyl)phosphine]
TbHK1 [5]
  Impact on oligomerization of TbHK1: neither EbSe nor TCEP impact oligomerization
